Source: patent US9663516B2, “Bicyclic-pyrimidinedione compounds” (MyoKardia, Inc., priority 2014, dated 2017)

molecular target: bovine cardiac myosin (Bos taurus, UniProt Q9BE39); test: Myosin inhibition assay (PK/LDH-coupled ATPase, bovine cardiac myofibrils); type: biochemical; settings: calcium concentration giving 50% activation, pH 6.8, read-out: bcMF pCa_6 IC50
Procedure: Small molecule agents were assessed for their ability to inhibit the enzymatic activity of bovine cardiac myosin using a biochemical assay that couples the release of ADP (adenosine diphosphate) from cardiac myosin to an enzymatic coupling system consisting of pyruvate kinase and lactate dehydrogenase (PK/LDH) and monitoring the absorbance decrease of NADH (at 340 nm) as a function of time. PK converts ADP to ATP (adenosine triphosphate) by converting PEP (phosphoenolpyruvate) to pyruvate. Pyruvate is then converted to lactate by LDH by converting NADH (nicotinamide adenine dinucleotide) to NAD (oxidized nicotinamide adenine dinucleotide). […] Prior to testing small molecule agents, the bovine myofibrils were assessed for their calcium responsiveness and the calcium concentration that achieves a 50% activation of the myofibril system was chosen as the final condition for assessing the inhibitory activity of the small molecule agents. All enzymatic activity was measured in a buffered solution containing 12 mM PIPES (piperazine-N,N′-bis(2-ethanesulfonic acid), 2 mM magnesium chloride at pH 6.8 (PM12 buffer). Final assay conditions were 1 mg/mL of bovine cardiac myofibrils, 0.4 mM PK/LDH, 50 uM ATP, 0.1 mg/mL BSA (bovine serum albumin), 10 ppm antifoam, 2 mM BME, 0.5 mM NADH, 1.5 mM PEP at the desired free calcium concentration required to achieve 50% activation of the myofibrils.
A dilution series of compound was created in DMSO such that the final desired concentration of compound would be achieved in a volume of 30 μL with a fixed DMSO concentration of 3.3% (v/v). Typically 1 μL of the dilution series were added to 384 well plate to achieve an 10 point dose response. Following the addition of 14 μL of a solution containing bovine cardiac myofibrils, PK/LDH and a solution of calcium (that achieved 50% activation), the enzymatic reaction was started with the addition of 15 μL of a solution containing ATP, PEP and NADH. The reaction progress was followed in a PerkinElmer Envision plate reader at ambient temperature using clear bottom plates. The plate reader was configured to read absorbance at 340 nm in kinetics mode for 15 minutes. Data were recorded as the slope of the absorbance response to time. The slopes of the absorbance response as a function of time were normalized to slopes on the plate containing DMSO. This normalized rate was then plotted as a function of small molecule concentration and the data was fitted to a four-parameter fit using EXCEL XLfit. The IC50 is the concentration at which fifty percent of the total response is inhibited.

Chain of bovine cardiac myosin (Q9BE39 whole entry): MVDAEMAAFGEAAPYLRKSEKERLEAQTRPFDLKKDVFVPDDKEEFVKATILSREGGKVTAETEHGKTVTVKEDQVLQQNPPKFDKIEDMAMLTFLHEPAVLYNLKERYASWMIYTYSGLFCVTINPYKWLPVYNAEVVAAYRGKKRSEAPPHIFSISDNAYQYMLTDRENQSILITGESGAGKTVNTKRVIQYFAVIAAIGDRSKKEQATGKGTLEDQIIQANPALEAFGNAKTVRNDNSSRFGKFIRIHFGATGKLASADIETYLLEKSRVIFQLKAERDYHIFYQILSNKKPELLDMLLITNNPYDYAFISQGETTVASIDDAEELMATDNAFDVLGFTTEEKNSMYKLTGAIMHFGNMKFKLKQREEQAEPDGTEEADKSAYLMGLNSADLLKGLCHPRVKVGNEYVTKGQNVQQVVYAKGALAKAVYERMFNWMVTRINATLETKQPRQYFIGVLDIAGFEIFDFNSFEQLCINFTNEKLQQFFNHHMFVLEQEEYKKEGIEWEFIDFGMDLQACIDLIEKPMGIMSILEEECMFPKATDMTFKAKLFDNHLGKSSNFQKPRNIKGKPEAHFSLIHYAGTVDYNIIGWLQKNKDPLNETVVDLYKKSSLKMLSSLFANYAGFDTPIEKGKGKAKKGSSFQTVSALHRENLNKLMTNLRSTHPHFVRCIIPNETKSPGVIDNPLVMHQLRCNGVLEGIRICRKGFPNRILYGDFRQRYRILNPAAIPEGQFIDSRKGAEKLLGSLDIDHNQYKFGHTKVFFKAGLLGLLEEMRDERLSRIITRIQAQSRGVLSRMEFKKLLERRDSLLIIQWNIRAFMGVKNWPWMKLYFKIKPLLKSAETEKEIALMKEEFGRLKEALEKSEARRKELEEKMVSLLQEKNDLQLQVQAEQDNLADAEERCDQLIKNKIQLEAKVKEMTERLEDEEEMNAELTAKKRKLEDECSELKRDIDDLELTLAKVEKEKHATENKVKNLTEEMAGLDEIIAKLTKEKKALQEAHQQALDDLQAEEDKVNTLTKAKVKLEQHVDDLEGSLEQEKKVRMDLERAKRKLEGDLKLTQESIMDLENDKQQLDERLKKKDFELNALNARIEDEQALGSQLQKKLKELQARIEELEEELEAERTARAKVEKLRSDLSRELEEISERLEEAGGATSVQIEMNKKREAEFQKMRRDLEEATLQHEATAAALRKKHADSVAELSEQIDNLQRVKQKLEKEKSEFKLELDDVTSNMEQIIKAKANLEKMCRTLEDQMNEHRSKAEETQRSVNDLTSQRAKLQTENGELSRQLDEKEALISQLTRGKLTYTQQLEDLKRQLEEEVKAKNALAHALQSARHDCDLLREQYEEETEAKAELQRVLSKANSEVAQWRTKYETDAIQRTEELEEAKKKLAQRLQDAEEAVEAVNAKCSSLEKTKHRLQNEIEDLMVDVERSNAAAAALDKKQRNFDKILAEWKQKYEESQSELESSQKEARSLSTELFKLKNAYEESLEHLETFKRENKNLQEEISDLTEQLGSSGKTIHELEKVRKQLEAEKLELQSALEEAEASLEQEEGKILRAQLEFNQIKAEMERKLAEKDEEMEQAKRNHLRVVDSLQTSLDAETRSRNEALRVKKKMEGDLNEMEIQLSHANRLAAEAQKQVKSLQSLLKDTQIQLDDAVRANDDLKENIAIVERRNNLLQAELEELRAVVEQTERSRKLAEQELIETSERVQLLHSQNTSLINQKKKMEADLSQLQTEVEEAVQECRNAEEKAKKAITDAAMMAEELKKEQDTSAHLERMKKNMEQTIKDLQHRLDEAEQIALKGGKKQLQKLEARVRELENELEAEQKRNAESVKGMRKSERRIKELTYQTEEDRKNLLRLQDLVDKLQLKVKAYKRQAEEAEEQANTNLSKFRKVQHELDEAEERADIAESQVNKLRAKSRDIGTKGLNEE
Chain of bovine cardiac myosin (P85100 whole entry partner): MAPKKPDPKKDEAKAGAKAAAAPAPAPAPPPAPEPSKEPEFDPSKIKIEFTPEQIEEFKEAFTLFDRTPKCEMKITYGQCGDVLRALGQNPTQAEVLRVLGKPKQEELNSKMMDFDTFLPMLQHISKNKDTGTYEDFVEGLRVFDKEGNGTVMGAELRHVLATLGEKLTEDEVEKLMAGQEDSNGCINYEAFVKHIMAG
Chain of bovine cardiac myosin (Q3SZE5 whole entry partner): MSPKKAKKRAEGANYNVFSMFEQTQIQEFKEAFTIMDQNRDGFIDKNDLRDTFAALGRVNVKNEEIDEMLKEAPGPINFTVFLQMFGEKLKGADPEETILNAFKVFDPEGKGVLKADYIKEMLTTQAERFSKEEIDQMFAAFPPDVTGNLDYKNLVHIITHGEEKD

| Structure (SMILES) | IC50 [µM] |
| --- | --- |
| CCn1c(=O)[nH]c2c(c1=O)CC[C@H](c1cccc(F)c1)N2 [Compound 61] | 1 to 15 |
| C[C@]1(c2cc(F)ccc2F)CCc2c([nH]c(=O)n(C3CCC3)c2=O)N1 [Compound 134] | < 1 |
| CCn1c(=O)[nH]c2c(c1=O)CC[C@H](c1ccc(F)cc1F)N2 [Compound 16] | 1 to 15 |
| O=c1[nH]c2c(c(=O)n1-c1cc(F)cc(F)c1)C[C@H](c1ccccc1)N2 [Compound 71] | > 15 |
| CC(C)n1c(=O)[nH]c2c(c1=O)CC[C@](C)(c1cc(F)ccc1F)N2 [Compound 115] | < 1 |
| CCn1c(=O)[nH]c2c(c1=O)CC[C@H](c1cccc(Cl)c1)N2 [Compound 11, (R)-7-(3-Chlorophenyl)-3-ethyl-5,6,7,8-tetrahydropyrido[2,3-d]pyrimidine-2,4(1H,3H)-dione] | 1 to 15 |
| CCn1c(=O)[nH]c2c(c1=O)CC[C@](CC)(c1ccccc1)N2 [Compound 123] | 1 to 15 |
| CC[C@@H](C)n1c(=O)[nH]c2c(c1=O)CC[C@H](C1CCC(F)(F)CC1)N2 [Compound 78] | < 1 |
| CC(C)n1c(=O)[nH]c2c(c1=O)CCC(c1ccccc1)N2 (stereo not drawn) [Compound 89] | 1 to 15 |
| CC(C)n1c(=O)[nH]c2c(c1=O)CC[C@](C)(c1ccc(F)c(F)c1)N2 [Compound 111] | < 1 |
| Cc1cccc([C@H]2CCc3c([nH]c(=O)n(C(C)C)c3=O)N2)c1 [Compound 102] | < 1 |
| CCn1c(=O)[nH]c2c(c1=O)CCC[C@H](c1ccc(F)c(F)c1)N2 [Compound 99] | > 15 |
| CCn1c(=O)[nH]c2c(c1=O)CC[C@H](c1ccc(F)c(F)c1)CN2 [Compound 84] | > 15 |
| CC(C)n1c(=O)[nH]c2c(c1=O)CCCN2 [Compound 10, 3-Isopropyl-5,6,7,8-tetrahydropyrido[2,3-d]pyrimidine-2,4(1H,3H)-dione] | > 15 |
| COc1cccc([C@H]2CCc3c([nH]c(=O)n(C(C)C)c3=O)N2)c1 [Compound 5, (R)-3-Isopropyl-7-(3-methoxyphenyl)-5,6,7,8-tetrahydropyrido[2,3-d]pyrimidine-2,4(1H,3H)-dione] | 1 to 15 |
| CCCn1c(=O)[nH]c2c(c1=O)CC[C@H](c1ccc(F)c(F)c1)N2 [Compound 97] | 1 to 15 |
| O=c1[nH]c2c(c(=O)n1CC(F)(F)F)CC[C@H](c1ccccc1)N2 [Compound 63] | 1 to 15 |
| O=c1[nH]c2c(c(=O)n1C1CC1)CC[C@H](C1CCC(F)(F)CC1)N2 [Compound 21] | 1 to 15 |
| CCn1c(=O)[nH]c2c(c1=O)CC[C@H](c1cc(F)ccc1F)N2 [Compound 74] | 1 to 15 |
| CC(C)n1c(=O)[nH]c2c(c1=O)CC(F)(F)[C@](C)(c1ccccc1)N2 [Compound 140] | 1 to 15 |

| Structure (SMILES) | IC50 [µM] |
| --- | --- |
| CC(C)Cn1c(=O)[nH]c2c(c1=O)CC[C@H](C1CCC(F)(F)CC1)N2 [Compound 23] | < 1 |
| Cc1ccccc1[C@H]1CCc2c([nH]c(=O)n(C(C)C)c2=O)N1 [Compound 104] | 1 to 15 |
| COC(=O)N1CCC(n2c(=O)[nH]c3c(c2=O)CC[C@H](c2ccccc2)N3)CC1 [Compound 110] | 1 to 15 |
| CC(C)[C@H]1CCc2c([nH]c(=O)n(-c3cc(F)cc(F)c3)c2=O)N1 [Compound 44] | > 15 |
| CCn1c(=O)[nH]c2c(c1=O)C[C@](C)(c1ccccc1)N2 [Compound 144] | > 15 |
| Cc1ccccc1[C@H]1CCc2c([nH]c(=O)n(C3(C)CC3)c2=O)N1 [Compound 122] | 1 to 15 |
| CC(C)n1c(=O)[nH]c2c(c1=O)CC[C@@](c1ccccc1)(C(F)F)N2 [Compound 112] | < 1 |
| CC(C)n1c(=O)[nH]c2c(c1=O)CC[C@H](C1CCOCC1)N2 [Compound 27] | 1 to 15 |
| CCn1c(=O)[nH]c2c(c1=O)CC[C@H](c1ccccc1Cl)N2 [Compound 57] | 1 to 15 |
| CC(C)n1c(=O)[nH]c2c(c1=O)CC[C@H](c1cc(F)cc(F)c1)N2 [Compound 77] | 1 to 15 |
| CC(C)n1c(=O)[nH]c2c(c1=O)CC[C@H](CC1CCOCC1)N2 [Compound 62] | > 15 |
| CC(C)n1c(=O)[nH]c2c(c1=O)CC(F)(F)[C@H](c1cccc(Cl)c1)N2 [Compound 129] | < 1 |
| O=c1[nH]c2c(c(=O)n1CC(F)F)CC[C@H](c1cccc(F)c1)N2 [Compound 24] | 1 to 15 |
| C[C@]1(c2cc(F)ccc2F)CCc2c([nH]c(=O)n(C3CC3)c2=O)N1 [Compound 138] | < 1 |
| CC1(n2c(=O)[nH]c3c(c2=O)CC[C@H](C2CCC(F)(F)CC2)N3)CC1 [Compound 37] | < 1 |
| CC(C)n1c(=O)[nH]c2c(c1=O)CC[C@H](c1c(F)cccc1F)N2 [Compound 72] | 1 to 15 |
| CCn1c(=O)[nH]c2c(c1=O)CC[C@@](c1ccccc1)(C1CCC1)N2 [Compound 145] | < 1 |
| O=c1[nH]c2c(c(=O)n1CC1CC1)CC[C@H](C1CCC(F)(F)CC1)N2 [Compound 19] | 1 to 15 |
| CC1(n2c(=O)[nH]c3c(c2=O)CC[C@H](c2ccccc2F)N3)CC1 [Compound 114] | 1 to 15 |
| C[C@]1(c2cccc(F)c2)CCc2c([nH]c(=O)n(CC(F)(F)F)c2=O)N1 [Compound 137] | < 1 |

| Structure (SMILES) | IC50 [µM] |
| --- | --- |
| O=c1[nH]c2c(c(=O)n1-c1ccccc1)CC[C@H](c1ccc(F)cc1)N2 [Compound 3, (R)-7-(4-Fluorophenyl)-3-phenyl-5,6,7,8-tetrahydropyrido[2,3-d]pyrimidine-2,4(1H,3H)-dione] | 1 to 15 |
| O=c1[nH]c2c(c(=O)n1-c1ccccc1)CC[C@H](c1cccc(F)c1)N2 [Compound 49] | 1 to 15 |
| O=c1[nH]c2c(c(=O)n1-c1cccc(F)n1)CC[C@H](c1ccccc1)N2 [Compound 34] | 1 to 15 |
| CC(C)n1c(=O)[nH]c2c(c1=O)C[C@H](Cc1ccccc1)N2 [Compound 87] | > 15 |
| O=c1[nH]c2c(c(=O)n1CC(F)(F)F)CC[C@@H](c1ccccc1)N2 [Compound 86] | > 15 |
| CC1(n2c(=O)[nH]c3c(c2=O)CC[C@@H](c2ccccc2F)N3)CC1 [Compound 113] | > 15 |
| CC(C)n1c(=O)[nH]c2c(c1=O)CC[C@H](c1cccc(F)c1F)N2 [Compound 76] | 1 to 15 |
| C[C@]1(c2cccc(F)c2)CCc2c([nH]c(=O)n(C3CCOCC3)c2=O)N1 [Compound 128] | < 1 |
| CCn1c(=O)[nH]c2c(c1=O)CC[C@H](c1cccc(F)c1F)N2 [Compound 58] | > 15 |
| CC(C)n1c(=O)[nH]c2c(c1=O)C[C@H](C)[C@H](c1ccccc1)N2 [Compound 92] | > 15 |
| CCn1c(=O)[nH]c2c(c1=O)CC[C@H](c1c(F)cccc1F)N2 [Compound 75] | > 15 |
| O=c1[nH]c2c(c(=O)n1-c1ccccc1)CC[C@H](C1CCC(F)(F)CC1)N2 [Compound 47] | < 1 |
| CCn1c(=O)[nH]c2c(c1=O)CC[C@@](c1ccccc1)(C1CCOCC1)N2 [Compound 142] | < 1 |
| Cc1ccccc1[C@@H]1CCc2c([nH]c(=O)n(C(C)C)c2=O)N1 [Compound 105] | > 15 |
| O=c1[nH]c2c(c(=O)n1-c1ccccc1)CC[C@@H](c1ccccc1F)N2 [Compound 109] | > 15 |
| CC1(n2c(=O)[nH]c3c(c2=O)CC[C@H](c2cccc(F)c2)N3)CC1 [Compound 121] | 1 to 15 |
| O=c1[nH]c2c(c(=O)n1CC1CC1)CC[C@H](c1ccc(F)c(F)c1)N2 [Compound 82] | 1 to 15 |
| CC(C)n1c(=O)[nH]c2c(c1=O)CC(F)(F)[C@@H](c1cccc(Cl)c1)N2 [Compound 130] | > 15 |
| O=c1[nH]c2c(c(=O)n1-c1cccc(F)n1)CC[C@H](C1CCC(F)(F)CC1)N2 [Compound 43] | < 1 |
| COc1cccc(-n2c(=O)[nH]c3c(c2=O)CC[C@H](C2CCC(F)(F)CC2)N3)n1 [Compound 39] | 1 to 15 |
